Source: ChEMBL document CHEMBL2010722, “Structure-activity relationship study of beta-carboline derivatives as haspin kinase inhibitors” (Bioorg Med Chem Lett, 2012)

Experiments:
[1] = molecular target: cGMP-dependent protein kinase 2 (Homo sapiens) (UniProt Q13237); test: Inhibition of CGK2 at 10 uM
[2] = tested on: Fibroblast growth factor receptor 3 (Homo sapiens), P22607 [K650M]; test: Inhibition of FGFR3 K650M mutant at 10 uM
[3] = Inhibition of SRM at 10 uM
[4] = molecular target: Serine/threonine-protein kinase Nek7 (Homo sapiens) (UniProt Q8TDX7); test: Inhibition of NEK7 at 10 uM
[5] = molecular target: [Pyruvate dehydrogenase (acetyl-transferring)] kinase isozyme 2, mitochondrial (Homo sapiens) (UniProt Q15119); test: Inhibition of PDHK2 at 10 uM
[6] = molecular target: Mitogen-activated protein kinase kinase kinase 8 (Homo sapiens) (UniProt P41279); test: Inhibition of COT at 10 uM
[7] = molecular target: Testis-specific serine/threonine-protein kinase 1 (Homo sapiens) (UniProt Q9BXA7); test: Inhibition of TSSK1 at 10 uM
[8] = molecular target: Ephrin type-A receptor 2 (Homo sapiens) (UniProt P29317); test: Inhibition of EPHA2 at 10 uM
[9] = molecular target: CDC7/DBF4 (Cell division cycle 7-related protein kinase/Activator of S phase kinase) (Homo sapiens) (UniProt Q9UBU7+O00311); test: Inhibition of CDC7-Dbf4 at 10 uM; format: protein-complex assay
[10] = molecular target: AMP-activated protein kinase (AMPK) alpha-1/beta-1/gamma-1 (Homo sapiens) (UniProt P54619+Q9Y478+Q13131); test: Inhibition of AMPKalpha1/beta1/gamma1 at 10 uM; format: protein-complex assay
[11] = molecular target: Ephrin type-B receptor 2 (Homo sapiens) (UniProt P29323); test: Inhibition of EPHB2 at 10 uM
Sequence of Ephrin type-B receptor 2 (Homo sapiens) (P29323 whole entry): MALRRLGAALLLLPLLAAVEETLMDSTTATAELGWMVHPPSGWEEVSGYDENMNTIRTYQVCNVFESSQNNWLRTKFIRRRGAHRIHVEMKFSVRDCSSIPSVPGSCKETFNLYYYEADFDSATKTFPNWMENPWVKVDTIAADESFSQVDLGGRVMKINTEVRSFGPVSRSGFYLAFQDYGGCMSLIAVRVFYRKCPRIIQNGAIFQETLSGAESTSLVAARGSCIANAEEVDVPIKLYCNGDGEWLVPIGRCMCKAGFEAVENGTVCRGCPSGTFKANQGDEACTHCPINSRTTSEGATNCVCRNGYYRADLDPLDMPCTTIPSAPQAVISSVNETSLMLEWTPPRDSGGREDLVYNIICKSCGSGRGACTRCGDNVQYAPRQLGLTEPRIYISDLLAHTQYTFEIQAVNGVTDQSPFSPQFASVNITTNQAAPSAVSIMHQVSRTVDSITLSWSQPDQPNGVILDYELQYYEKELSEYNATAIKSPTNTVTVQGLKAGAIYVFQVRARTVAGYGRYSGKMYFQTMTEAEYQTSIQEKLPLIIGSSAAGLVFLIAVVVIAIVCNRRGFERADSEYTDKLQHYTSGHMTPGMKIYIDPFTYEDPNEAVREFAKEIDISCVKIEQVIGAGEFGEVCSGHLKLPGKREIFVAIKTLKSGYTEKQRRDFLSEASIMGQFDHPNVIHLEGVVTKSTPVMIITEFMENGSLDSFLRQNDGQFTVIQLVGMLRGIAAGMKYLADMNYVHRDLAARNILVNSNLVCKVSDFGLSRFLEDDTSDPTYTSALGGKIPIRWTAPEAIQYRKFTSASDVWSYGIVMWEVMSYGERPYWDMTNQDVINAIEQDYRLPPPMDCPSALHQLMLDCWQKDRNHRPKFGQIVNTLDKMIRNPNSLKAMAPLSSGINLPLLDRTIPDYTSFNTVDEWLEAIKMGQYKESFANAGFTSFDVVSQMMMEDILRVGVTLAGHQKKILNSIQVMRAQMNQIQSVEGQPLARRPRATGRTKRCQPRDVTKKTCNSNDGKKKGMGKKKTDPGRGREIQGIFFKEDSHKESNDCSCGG

[12] = molecular target: Inhibitor of nuclear factor kappa-B kinase subunit beta (Homo sapiens) (UniProt O14920); test: Inhibition of IKKb at 10 uM
[13] = tested on: Tyrosine-protein kinase ABL1 (Homo sapiens), P00519 [T315I]; test: Inhibition of ABL T315I mutant at 10 uM
[14] = molecular target: Mitogen-activated protein kinase 13 (Homo sapiens) (UniProt O15264); test: Inhibition of p38delta at 10 uM
[15] = molecular target: Mitogen-activated protein kinase 3 (Homo sapiens) (UniProt P27361); test: Inhibition of Erk1 at 10 uM
[16] = tested on: Epidermal growth factor receptor (Homo sapiens), P00533 [L861Q]; test: Inhibition of EGFR L861Q mutant at 10 uM; format: protein assay
Sequence of Epidermal growth factor receptor (Homo sapiens), P00533 [L861Q] (P00533 whole entry L861Q): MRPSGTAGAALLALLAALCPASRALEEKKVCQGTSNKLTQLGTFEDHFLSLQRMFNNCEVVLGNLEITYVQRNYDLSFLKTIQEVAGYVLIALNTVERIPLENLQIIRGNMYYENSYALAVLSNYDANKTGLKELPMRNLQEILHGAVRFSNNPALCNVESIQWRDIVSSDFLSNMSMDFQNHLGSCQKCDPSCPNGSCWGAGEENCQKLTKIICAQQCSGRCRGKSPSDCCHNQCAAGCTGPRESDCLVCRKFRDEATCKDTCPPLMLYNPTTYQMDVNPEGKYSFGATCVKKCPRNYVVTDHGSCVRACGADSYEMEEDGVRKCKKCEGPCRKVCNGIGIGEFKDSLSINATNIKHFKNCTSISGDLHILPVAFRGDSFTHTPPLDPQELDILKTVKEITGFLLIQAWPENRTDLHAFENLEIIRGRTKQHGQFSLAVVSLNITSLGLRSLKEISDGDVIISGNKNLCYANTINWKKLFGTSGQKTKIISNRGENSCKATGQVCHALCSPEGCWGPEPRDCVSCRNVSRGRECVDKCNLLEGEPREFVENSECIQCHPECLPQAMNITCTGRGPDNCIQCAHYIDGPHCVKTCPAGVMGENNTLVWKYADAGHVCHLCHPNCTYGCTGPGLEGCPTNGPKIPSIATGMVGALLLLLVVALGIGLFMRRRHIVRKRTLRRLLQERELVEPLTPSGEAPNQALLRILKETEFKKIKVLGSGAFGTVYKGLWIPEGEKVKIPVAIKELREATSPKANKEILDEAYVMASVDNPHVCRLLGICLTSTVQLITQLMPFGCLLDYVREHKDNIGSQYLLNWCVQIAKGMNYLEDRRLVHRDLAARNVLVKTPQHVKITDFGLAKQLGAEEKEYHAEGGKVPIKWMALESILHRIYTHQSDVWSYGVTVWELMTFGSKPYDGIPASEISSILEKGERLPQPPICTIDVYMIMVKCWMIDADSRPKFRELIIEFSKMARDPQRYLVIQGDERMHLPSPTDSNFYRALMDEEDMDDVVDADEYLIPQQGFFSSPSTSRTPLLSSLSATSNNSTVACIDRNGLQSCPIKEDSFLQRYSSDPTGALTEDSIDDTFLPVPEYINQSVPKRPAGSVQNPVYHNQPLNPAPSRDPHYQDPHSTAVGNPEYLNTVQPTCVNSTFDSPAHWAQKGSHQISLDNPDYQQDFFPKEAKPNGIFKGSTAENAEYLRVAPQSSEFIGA

[17] = molecular target: T1, Dual specificity tyrosine-phosphorylation-regulated kinase 2 (Homo sapiens, UniProt Q92630)
T1 sequence (Q92630 whole entry): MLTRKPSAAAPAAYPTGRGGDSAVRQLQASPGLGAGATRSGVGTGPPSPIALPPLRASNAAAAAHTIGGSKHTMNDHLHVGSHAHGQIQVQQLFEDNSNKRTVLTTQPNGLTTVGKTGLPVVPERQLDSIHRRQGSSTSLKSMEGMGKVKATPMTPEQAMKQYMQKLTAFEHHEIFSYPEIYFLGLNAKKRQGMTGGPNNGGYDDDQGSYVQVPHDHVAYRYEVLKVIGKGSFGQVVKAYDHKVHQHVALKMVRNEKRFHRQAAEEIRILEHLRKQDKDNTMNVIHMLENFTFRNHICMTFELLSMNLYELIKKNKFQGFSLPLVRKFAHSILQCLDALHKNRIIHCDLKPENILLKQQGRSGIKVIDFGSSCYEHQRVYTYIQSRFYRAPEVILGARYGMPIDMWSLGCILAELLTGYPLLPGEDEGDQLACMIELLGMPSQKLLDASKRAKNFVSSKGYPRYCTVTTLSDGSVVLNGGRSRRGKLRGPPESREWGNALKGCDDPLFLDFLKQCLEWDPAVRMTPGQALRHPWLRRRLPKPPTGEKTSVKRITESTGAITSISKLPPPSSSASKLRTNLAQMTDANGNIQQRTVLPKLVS

[18] = molecular target: Cyclin-dependent kinase 7/ cyclin H (Homo sapiens) (UniProt P51946+P50613); test: Inhibition of CDK7-CycH-MAT1 at 10 uM; format: protein-complex assay
[19] = molecular target: Phosphorylase b kinase gamma catalytic chain, skeletal muscle/heart isoform (Homo sapiens) (UniProt Q16816); test: Inhibition of PHKG1 at 10 uM
Sequence of Phosphorylase b kinase gamma catalytic chain, skeletal muscle/heart isoform (Homo sapiens) (Q16816 whole entry, looked up, canonical isoform): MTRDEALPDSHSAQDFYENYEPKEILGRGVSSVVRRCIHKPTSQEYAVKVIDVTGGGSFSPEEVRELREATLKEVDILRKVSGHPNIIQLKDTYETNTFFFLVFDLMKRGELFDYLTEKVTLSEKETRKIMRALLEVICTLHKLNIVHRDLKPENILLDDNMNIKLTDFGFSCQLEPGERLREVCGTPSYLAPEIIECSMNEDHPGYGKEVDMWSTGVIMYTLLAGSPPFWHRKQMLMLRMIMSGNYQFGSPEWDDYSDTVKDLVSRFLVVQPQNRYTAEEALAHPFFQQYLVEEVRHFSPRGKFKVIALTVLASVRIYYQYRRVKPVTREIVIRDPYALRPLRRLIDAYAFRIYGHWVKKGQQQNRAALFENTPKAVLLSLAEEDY

[20] = molecular target: Serine/threonine-protein kinase MARK2 (Homo sapiens) (UniProt Q7KZI7); test: Inhibition of MARK2 at 10 uM
[21] = molecular target: Serine/threonine-protein kinase MRCK beta (Homo sapiens) (UniProt Q9Y5S2); test: Inhibition of MRCKb at 10 uM
[22] = molecular target: Tyrosine-protein kinase JAK3 (Homo sapiens) (UniProt P52333); test: Inhibition of JAK3 at 10 uM
[23] = molecular target: Dual specificity protein kinase CLK1 (Homo sapiens) (UniProt P49759); conditions: 10 uM
[24] = molecular target: SRSF protein kinase 3 (Homo sapiens) (UniProt Q9UPE1); test: Inhibition of MSSK1 (SRPK3) at 10 uM
[25] = molecular target: Mitogen-activated protein kinase kinase kinase 5 (Homo sapiens) (UniProt Q99683); test: Inhibition of MAP3K5 at 10 uM
[26] = molecular target: Serine/threonine-protein kinase 3 (Homo sapiens) (UniProt Q13188); test: Inhibition of MST2 at 10 uM
[27] = molecular target: Calcium/calmodulin-dependent protein kinase type II subunit delta (Homo sapiens) (UniProt Q13557); test: Inhibition of CaMK2d at 10 uM
[28] = molecular target: Mitogen-activated protein kinase kinase kinase 1 (Homo sapiens) (UniProt Q13233); test: Inhibition of MAP3K1 at 10 uM
[29] = molecular target: Protein kinase C zeta type (Homo sapiens) (UniProt Q05513); test: Inhibition of PKCzeta at 10 uM
[30] = molecular target: Fibroblast growth factor receptor 3 (Homo sapiens) (UniProt P22607); test: Inhibition of FGFR3 at 10 uM
Sequence of Fibroblast growth factor receptor 3 (Homo sapiens) (P22607 23-806 limits assumed): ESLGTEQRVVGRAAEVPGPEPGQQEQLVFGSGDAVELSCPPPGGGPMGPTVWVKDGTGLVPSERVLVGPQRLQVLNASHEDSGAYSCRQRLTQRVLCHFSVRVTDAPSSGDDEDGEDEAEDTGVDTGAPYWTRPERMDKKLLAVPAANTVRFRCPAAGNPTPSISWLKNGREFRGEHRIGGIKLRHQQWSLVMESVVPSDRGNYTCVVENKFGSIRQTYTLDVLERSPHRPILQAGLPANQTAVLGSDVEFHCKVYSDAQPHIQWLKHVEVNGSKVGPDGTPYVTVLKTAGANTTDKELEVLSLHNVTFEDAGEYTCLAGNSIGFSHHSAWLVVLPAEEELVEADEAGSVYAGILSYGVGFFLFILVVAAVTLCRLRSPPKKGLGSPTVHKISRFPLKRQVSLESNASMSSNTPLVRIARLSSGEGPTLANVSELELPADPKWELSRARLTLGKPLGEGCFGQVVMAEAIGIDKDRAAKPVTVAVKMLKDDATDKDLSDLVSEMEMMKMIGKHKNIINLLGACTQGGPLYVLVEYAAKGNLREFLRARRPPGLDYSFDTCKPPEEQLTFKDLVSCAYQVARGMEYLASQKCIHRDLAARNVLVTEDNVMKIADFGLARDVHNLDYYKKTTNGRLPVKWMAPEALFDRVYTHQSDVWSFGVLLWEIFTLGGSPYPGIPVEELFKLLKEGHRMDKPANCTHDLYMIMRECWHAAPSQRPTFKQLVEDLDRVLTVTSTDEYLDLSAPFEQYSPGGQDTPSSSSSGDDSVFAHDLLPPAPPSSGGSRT

[31] = molecular target: Glycogen synthase kinase-3 alpha (Homo sapiens) (UniProt P49840); test: Inhibition of GSK3a at 10 uM

Sequence of cGMP-dependent protein kinase 2 (Homo sapiens) (Q13237 whole entry): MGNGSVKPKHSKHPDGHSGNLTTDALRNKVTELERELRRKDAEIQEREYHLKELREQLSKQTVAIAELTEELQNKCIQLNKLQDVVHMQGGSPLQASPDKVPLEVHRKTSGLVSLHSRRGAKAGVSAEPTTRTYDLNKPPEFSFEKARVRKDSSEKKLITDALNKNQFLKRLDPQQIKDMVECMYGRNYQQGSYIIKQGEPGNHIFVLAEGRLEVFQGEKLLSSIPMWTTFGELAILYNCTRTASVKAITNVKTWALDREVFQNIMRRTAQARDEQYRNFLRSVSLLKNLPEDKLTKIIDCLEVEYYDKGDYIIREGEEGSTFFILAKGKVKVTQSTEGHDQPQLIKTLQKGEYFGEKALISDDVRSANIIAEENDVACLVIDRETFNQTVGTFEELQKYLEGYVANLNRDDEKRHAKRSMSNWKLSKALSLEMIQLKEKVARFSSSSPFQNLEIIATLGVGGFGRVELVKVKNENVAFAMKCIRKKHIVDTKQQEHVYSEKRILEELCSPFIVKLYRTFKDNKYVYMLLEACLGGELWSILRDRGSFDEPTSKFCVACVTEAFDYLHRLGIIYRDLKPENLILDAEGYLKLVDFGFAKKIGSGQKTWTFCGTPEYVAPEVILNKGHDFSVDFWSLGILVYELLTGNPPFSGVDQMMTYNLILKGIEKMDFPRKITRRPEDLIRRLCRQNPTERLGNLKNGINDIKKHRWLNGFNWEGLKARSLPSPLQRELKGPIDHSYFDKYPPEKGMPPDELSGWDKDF
Sequence of Fibroblast growth factor receptor 3 (Homo sapiens), P22607 [K650M] (P22607 whole entry K650M): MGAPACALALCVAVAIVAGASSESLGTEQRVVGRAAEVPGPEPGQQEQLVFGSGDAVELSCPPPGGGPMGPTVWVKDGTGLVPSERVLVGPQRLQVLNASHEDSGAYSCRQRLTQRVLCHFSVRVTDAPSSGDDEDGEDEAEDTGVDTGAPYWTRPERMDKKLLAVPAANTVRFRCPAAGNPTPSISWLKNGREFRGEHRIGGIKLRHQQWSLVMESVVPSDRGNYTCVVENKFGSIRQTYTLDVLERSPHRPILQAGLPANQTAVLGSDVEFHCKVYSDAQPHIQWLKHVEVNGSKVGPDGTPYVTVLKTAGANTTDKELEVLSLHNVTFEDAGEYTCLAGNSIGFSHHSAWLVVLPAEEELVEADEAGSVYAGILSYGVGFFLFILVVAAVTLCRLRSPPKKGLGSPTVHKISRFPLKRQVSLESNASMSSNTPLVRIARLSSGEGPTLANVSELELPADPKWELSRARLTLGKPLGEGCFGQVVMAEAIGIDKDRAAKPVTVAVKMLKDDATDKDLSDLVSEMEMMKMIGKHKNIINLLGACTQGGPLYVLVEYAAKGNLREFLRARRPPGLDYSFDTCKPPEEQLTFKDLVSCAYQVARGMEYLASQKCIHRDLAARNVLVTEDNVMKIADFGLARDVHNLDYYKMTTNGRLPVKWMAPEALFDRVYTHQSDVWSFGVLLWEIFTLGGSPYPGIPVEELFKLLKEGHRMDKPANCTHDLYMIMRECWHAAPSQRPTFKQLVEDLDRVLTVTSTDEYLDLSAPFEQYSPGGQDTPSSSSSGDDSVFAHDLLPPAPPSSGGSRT

COc1ccc2c3ccnc(C(F)(F)F)c3n(CCCCN)c2c1
inhibition [1]: 91% | inhibition [2]: 0% | inhibition [3]: 0% | inhibition [4]: 0% | inhibition [5]: 0% | inhibition [6]: 7% | inhibition [7]: 43% | inhibition [8]: 0% | inhibition [9]: 14% | inhibition [10]: 16% | inhibition [11]: 0% | inhibition [12]: 30% | inhibition [13]: 0% | inhibition [14]: 25% | inhibition [15]: 2% | inhibition [16]: 6% | IC50 [17]: 15 µM | inhibition [18]: 93% | inhibition [19]: 49% | inhibition [20]: 52% | inhibition [21]: 27% | inhibition [22]: 4% | inhibition [23]: 100% | inhibition [24]: 7% | inhibition [25]: 17% | inhibition [26]: 3% | inhibition [27]: 91% | inhibition [28]: 0% | inhibition [29]: 35% | inhibition [30]: 1% | inhibition [31]: 48%
